Experimental data taken from patent publication US8247211B2, “Glycopeptide antibiotics” (American Cyanamid Company, priority 2001, dated 2012).
Values after ≈ are worked out from the molar mass of the structure shown.

Columns and labels:
Assay in all cases: In vitro antibacterial evaluation: minimum inhibitory concentration (MIC), broth dilution method
Format in all cases: cell-based
Escherichia coli = details: broth dilution, 18 hours at 35° C.
Streptococcus sp. = details: broth dilution, 18 hours at 35° C.
In short: (§1)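 Using Muller-Hinton II […] and an inoculum of 5×10^5 CFU/mL, antibiotic dilutions from 64 down to 0.06 μg/mL were tested following NCCLS M7-A2. The MIC is the lowest concentration inhibiting growth, including in methicillin-, penicillin- or vancomycin-resistant clinical isolates.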

Enterococcus sp. = details: broth dilution, 18 hours at 35° C.
In short: as §1

Staphylococcus sp. = details: strain SMITH GC 4543; broth dilution, 18 hours at 35° C.
In short: as §1

[1] = Streptococcus agalactiae (GC 4564)
[2] = Streptococcus pneumoniae (ATCC 6301)
[3] = Streptococcus pneumoniae (GC 1894)
[4] = Streptococcus pneumoniae (GC 4565)
[5] = Streptococcus pyogenes (GC 4563)
[6] = Enterococcus faecalis (ATCC 29212)
[7] = Enterococcus faecalis (GC 2242)
[8] = Enterococcus faecalis (GC 2691)
[9] = Enterococcus faecalis (GC 3059)
[10] = Enterococcus faecalis (GC 4552)
[11] = Enterococcus faecalis (GC 4553)
[12] = Enterococcus faecalis (GC 4554)
[13] = Enterococcus faecalis (GC 6189)

| MIC Escherichia coli (ATCC 25922) (Escherichia coli) | MIC Escherichia coli (GC 4559) (Escherichia coli) | MIC Escherichia coli (GC 4560) (Escherichia coli) | MIC Streptococcus agalactiae (GC 4564) (Streptococcus sp.; [1]) | MIC Streptococcus pneumoniae (ATCC 6301) (Streptococcus sp.; [2]) | MIC Streptococcus pneumoniae (GC 1894) (Streptococcus sp.; [3]) | MIC Streptococcus pneumoniae (GC 4565) (Streptococcus sp.; [4]) | MIC Streptococcus pyogenes (GC 4563) (Streptococcus sp.; [5]) | MIC Streptococcus agalactiae (GC 4564) (Streptococcus sp.) | MIC Streptococcus pneumoniae (ATCC 6301) (Streptococcus sp.) | MIC Streptococcus pneumoniae (GC 1894) (Streptococcus sp.) | MIC Streptococcus pneumoniae (GC 4565) (Streptococcus sp.) | MIC Streptococcus pyogenes (GC 4563) (Streptococcus sp.) | MIC Enterococcus avium (GC 4558) (Enterococcus sp.; Enterococcus avium (GC 4558)) | MIC Enterococcus faecalis (ATCC 29212) (Enterococcus sp.; [6]) | MIC Enterococcus faecalis (GC 2242) (Enterococcus sp.; [7]) | MIC Enterococcus faecalis (GC 2691) (Enterococcus sp.; [8]) | MIC Enterococcus faecalis (GC 3059) (Enterococcus sp.; [9]) | MIC Enterococcus faecalis (GC 4552) (Enterococcus sp.; [10]) | MIC Enterococcus faecalis (GC 4553) (Enterococcus sp.; [11]) | SMILES | other results |
| --- | --- | --- | --- | --- | --- | --- | --- | --- | --- | --- | --- | --- | --- | --- | --- | --- | --- | --- | --- | --- | --- |
| >64 µg/mL | >64 µg/mL | 32 µg/mL (≈ 25.5 µM) | >64 µg/mL | >64 µg/mL | 64 µg/mL (≈ 50.9 µM) | >64 µg/mL | 64 µg/mL (≈ 50.9 µM) | >64 µg/mL | >64 µg/mL | 64 µg/mL (≈ 50.9 µM) | >64 µg/mL | 64 µg/mL (≈ 50.9 µM) | 64 µg/mL (≈ 50.9 µM) | 64 µg/mL (≈ 50.9 µM) | 64 µg/mL (≈ 50.9 µM) | >64 µg/mL | >64 µg/mL | >64 µg/mL | 32 µg/mL (≈ 25.5 µM) | CC(c1ccccc1)C1NC(=O)CNC(=O)C(CO)NC(=O)C(C(O)C2CNC(=N)N2C2OC(CO)C(O)C(O)C2O)NC(=O)C(C(O)C2CNC(=N)N2)NC(=O)C(Cc2ccc(O)c(NC(=S)Nc3cc(C(F)(F)F)cc(C(F)(F)F)c3)c2)NC1=O (stereo not drawn) [Example 24, Cyclo[glycyl-β-methylphenylalanyl-3-[[[3,5-bis(trifluoromethyl)phenyl]carbamothioyl]amino]-tyrosyl-3-(2-iminoimidazolidin-4-yl)seryl-3-(3-hexopyranosyl-2-iminoimidazolidin-4-yl)-serylseryl]] | MIC Enterococcus faecalis (GC 4554) (Enterococcus sp.; [12]): >64 µg/mL; MIC Enterococcus faecalis (GC 6189) (Enterococcus sp.; [13]): >64 µg/mL; MIC Enterococcus faecium (GC 2243) (Enterococcus sp.; Enterococcus faecium (GC 2243)): 64 µg/mL (≈ 50.9 µM); MIC Enterococcus faecium (GC 4556) (Enterococcus sp.; Enterococcus faecium (GC 4556)): 64 µg/mL (≈ 50.9 µM); MIC Enterococcus faecium (GC 4557) (Enterococcus sp.; Enterococcus faecium (GC 4557)): 32 µg/mL (≈ 25.5 µM); MIC Enterococcus avium (GC 4558) (Enterococcus sp.): 64 µg/mL (≈ 50.9 µM); MIC Enterococcus faecalis (ATCC 29212) (Enterococcus sp.): 64 µg/mL (≈ 50.9 µM); MIC Enterococcus faecalis (GC 2242) (Enterococcus sp.): 64 µg/mL (≈ 50.9 µM); MIC Enterococcus faecalis (GC 2691) (Enterococcus sp.): >64 µg/mL; MIC Enterococcus faecalis (GC 3059) (Enterococcus sp.): >64 µg/mL; MIC Enterococcus faecalis (GC 4552) (Enterococcus sp.): >64 µg/mL; MIC Enterococcus faecalis (GC 4553) (Enterococcus sp.): 32 µg/mL (≈ 25.5 µM); MIC Enterococcus faecalis (GC 4554) (Enterococcus sp.): >64 µg/mL; MIC Enterococcus faecalis (GC 6189) (Enterococcus sp.): >64 µg/mL; MIC Enterococcus faecium (GC 2243) (Enterococcus sp.): 64 µg/mL (≈ 50.9 µM); MIC Enterococcus faecium (GC 4556) (Enterococcus sp.): 64 µg/mL (≈ 50.9 µM); MIC Enterococcus faecium (GC 4557) (Enterococcus sp.): 32 µg/mL (≈ 25.5 µM); MIC Staphylococcus aureus-SMITH (GC 4543) (Staphylococcus sp.): >64 µg/mL |
| 64 µg/mL (≈ 57.3 µM) | 64 µg/mL (≈ 57.3 µM) | 16 µg/mL (≈ 14.3 µM) | 16 µg/mL (≈ 14.3 µM) | 32 µg/mL (≈ 28.6 µM) | 16 µg/mL (≈ 14.3 µM) | 32 µg/mL (≈ 28.6 µM) | 8 µg/mL (≈ 7.16 µM) | 16 µg/mL (≈ 14.3 µM) | 32 µg/mL (≈ 28.6 µM) | 16 µg/mL (≈ 14.3 µM) | 32 µg/mL (≈ 28.6 µM) | 8 µg/mL (≈ 7.16 µM) | 32 µg/mL (≈ 28.6 µM) | 32 µg/mL (≈ 28.6 µM) | 64 µg/mL (≈ 57.3 µM) | 32 µg/mL (≈ 28.6 µM) | 64 µg/mL (≈ 57.3 µM) | 64 µg/mL (≈ 57.3 µM) | 32 µg/mL (≈ 28.6 µM) | CC(c1ccccc1)C1NC(=O)CNC(=O)C(CO)NC(=O)C(C(O)C2CNC(=N)N2C2OC(CO)C(O)C(O)C2O)NC(=O)C(C(O)C2CNC(=N)N2)NC(=O)C(Cc2ccc3oc(-c4cccc([N+](=O)[O-])c4)nc3c2)NC1=O (stereo not drawn) [Example 26, Cyclo[3-[2-(3-nitrophenyl)-1,3-benzoxazol-5-yl)alanyl-3-(2-iminoimidazolidin-4-yl)seryl-3-(3-hexopyranosyl-2-iminoimidazolidin-4-yl)serylserylglycyl-β-methylphenylalanyl]] | MIC Enterococcus faecalis (GC 4554) (Enterococcus sp.; [12]): 64 µg/mL (≈ 57.3 µM); MIC Enterococcus faecalis (GC 6189) (Enterococcus sp.; [13]): 32 µg/mL (≈ 28.6 µM); MIC Enterococcus faecium (GC 2243) (Enterococcus sp.; Enterococcus faecium (GC 2243)): 32 µg/mL (≈ 28.6 µM); MIC Enterococcus faecium (GC 4556) (Enterococcus sp.; Enterococcus faecium (GC 4556)): 64 µg/mL (≈ 57.3 µM); MIC Enterococcus faecium (GC 4557) (Enterococcus sp.; Enterococcus faecium (GC 4557)): 8 µg/mL (≈ 7.16 µM); MIC Enterococcus avium (GC 4558) (Enterococcus sp.): 32 µg/mL (≈ 28.6 µM); MIC Enterococcus faecalis (ATCC 29212) (Enterococcus sp.): 32 µg/mL (≈ 28.6 µM); MIC Enterococcus faecalis (GC 2242) (Enterococcus sp.): 64 µg/mL (≈ 57.3 µM); MIC Enterococcus faecalis (GC 2691) (Enterococcus sp.): 32 µg/mL (≈ 28.6 µM); MIC Enterococcus faecalis (GC 3059) (Enterococcus sp.): 64 µg/mL (≈ 57.3 µM); MIC Enterococcus faecalis (GC 4552) (Enterococcus sp.): 64 µg/mL (≈ 57.3 µM); MIC Enterococcus faecalis (GC 4553) (Enterococcus sp.): 32 µg/mL (≈ 28.6 µM); MIC Enterococcus faecalis (GC 4554) (Enterococcus sp.): 64 µg/mL (≈ 57.3 µM); MIC Enterococcus faecalis (GC 6189) (Enterococcus sp.): 32 µg/mL (≈ 28.6 µM); MIC Enterococcus faecium (GC 2243) (Enterococcus sp.): 32 µg/mL (≈ 28.6 µM); MIC Enterococcus faecium (GC 4556) (Enterococcus sp.): 64 µg/mL (≈ 57.3 µM); MIC Enterococcus faecium (GC 4557) (Enterococcus sp.): 8 µg/mL (≈ 7.16 µM); MIC Staphylococcus aureus-SMITH (GC 4543) (Staphylococcus sp.): 16 µg/mL (≈ 14.3 µM) |
| 32 µg/mL (≈ 27.8 µM) | 32 µg/mL (≈ 27.8 µM) | 8 µg/mL (≈ 6.95 µM) | 32 µg/mL (≈ 27.8 µM) | 16 µg/mL (≈ 13.9 µM) | 32 µg/mL (≈ 27.8 µM) | 16 µg/mL (≈ 13.9 µM) | 8 µg/mL (≈ 6.95 µM) | 32 µg/mL (≈ 27.8 µM) | 16 µg/mL (≈ 13.9 µM) | 32 µg/mL (≈ 27.8 µM) | 16 µg/mL (≈ 13.9 µM) | 8 µg/mL (≈ 6.95 µM) | 16 µg/mL (≈ 13.9 µM) | 32 µg/mL (≈ 27.8 µM) | 32 µg/mL (≈ 27.8 µM) | 32 µg/mL (≈ 27.8 µM) | 32 µg/mL (≈ 27.8 µM) | 64 µg/mL (≈ 55.6 µM) | 16 µg/mL (≈ 13.9 µM) | CC(c1ccccc1)C1NC(=O)CNC(=O)C(CO)NC(=O)C(C(O)C2CNC(=N)N2C2OC(CO)C(O)C(O)C2O)NC(=O)C(C(O)C2CNC(=N)N2)NC(=O)C(Cc2ccc3oc(-c4ccc(Br)cc4)nc3c2)NC1=O (stereo not drawn) [Example 27, Cyclo[3-[2-(4-bromaphenyl)-1,3-benzoxazol-5-yl]alanyl-3-(2-iminoimidazolidin-4-yl)seryl-3-(3-hexopyranosyl-2-iminoimidazolidin-4-yl)serylserylglycyl-β-methylphenylalanyl]] | MIC Enterococcus faecalis (GC 4554) (Enterococcus sp.; [12]): 32 µg/mL (≈ 27.8 µM); MIC Enterococcus faecalis (GC 6189) (Enterococcus sp.; [13]): 32 µg/mL (≈ 27.8 µM); MIC Enterococcus faecium (GC 2243) (Enterococcus sp.; Enterococcus faecium (GC 2243)): 32 µg/mL (≈ 27.8 µM); MIC Enterococcus faecium (GC 4556) (Enterococcus sp.; Enterococcus faecium (GC 4556)): 64 µg/mL (≈ 55.6 µM); MIC Enterococcus faecium (GC 4557) (Enterococcus sp.; Enterococcus faecium (GC 4557)): 8 µg/mL (≈ 6.95 µM); MIC Enterococcus avium (GC 4558) (Enterococcus sp.): 16 µg/mL (≈ 13.9 µM); MIC Enterococcus faecalis (ATCC 29212) (Enterococcus sp.): 32 µg/mL (≈ 27.8 µM); MIC Enterococcus faecalis (GC 2242) (Enterococcus sp.): 32 µg/mL (≈ 27.8 µM); MIC Enterococcus faecalis (GC 2691) (Enterococcus sp.): 32 µg/mL (≈ 27.8 µM); MIC Enterococcus faecalis (GC 3059) (Enterococcus sp.): 32 µg/mL (≈ 27.8 µM); MIC Enterococcus faecalis (GC 4552) (Enterococcus sp.): 64 µg/mL (≈ 55.6 µM); MIC Enterococcus faecalis (GC 4553) (Enterococcus sp.): 16 µg/mL (≈ 13.9 µM); MIC Enterococcus faecalis (GC 4554) (Enterococcus sp.): 32 µg/mL (≈ 27.8 µM); MIC Enterococcus faecalis (GC 6189) (Enterococcus sp.): 32 µg/mL (≈ 27.8 µM); MIC Enterococcus faecium (GC 2243) (Enterococcus sp.): 32 µg/mL (≈ 27.8 µM); MIC Enterococcus faecium (GC 4556) (Enterococcus sp.): 64 µg/mL (≈ 55.6 µM); MIC Enterococcus faecium (GC 4557) (Enterococcus sp.): 8 µg/mL (≈ 6.95 µM); MIC Staphylococcus aureus-SMITH (GC 4543) (Staphylococcus sp.): 8 µg/mL (≈ 6.95 µM) |
